# Experimental data from patent publication US8906825B2, “Herbicidal compositions comprising 4-amino-3-chloro-5-fluoro-6-(4-chloro-2-fluoro-3-methoxyphenyl) pyridine-2-carboxylic acid or a derivative thereof and triazolopyrimidine sulfonamides” (Dow AgroSciences LLC, priority 2012, dated 2014).
# Columns and labels:
# Assay type in all cases: in vivo
# [1] = system: ECHCG (Echinochloa crusgalli (L.) Beauv., barnyardgrass); test: In-water applied herbicidal mixtures, transplanted paddy rice, greenhouse (Example II)
# [2] = system: FIMMI (Fimbristylis miliacea (L.) Vahl, globe fringerush); test: as above; details: Compound A Benzyl Ester 8 gae/ha
# [3] = system: ECHCG (Echinochloa crusgalli (L.) Beauv., barnyardgrass); test: Postemergence foliar-applied herbicidal mixtures, direct seeded rice, greenhouse (Example I)
Compound,Visual Weed Control (%) - 21 DAA ECHCG Obs ([1]; Compound A Benzyl Ester 4.38 gae/ha),Visual Weed Control (%) - 21 DAA ECHCG Obs ([1]; Compound A Benzyl Ester 8.75 gae/ha),Visual Weed Control (%) - 21 DAA FIMMI Obs [2],Visual Weed Control (%) - 27 DAA ECHCG Obs ([3]; Penoxsulam 4.38 gai/ha),Visual Weed Control (%) - 27 DAA ECHCG Obs ([3]; Penoxsulam 8.75 gai/ha)
"COc1c(Cl)ccc(-c2nc(C(=O)OCc3ccccc3)c(Cl)c(N)c2F)c1F [Compound A Benzyl Ester, benzyl ester of 4-amino-3-chloro-5-fluoro-6-(4-chloro-2-fluoro-3-methoxy-phenyl)pyridine-2-carboxylic acid]",20%,85%,30%,,
"COc1cnc(OC)n2nc(NS(=O)(=O)c3c(OCC(F)F)cccc3C(F)(F)F)nc12 [Penoxsulam, 2-(2,2-difluoroethoxy)-N-(5,8-dimethoxy[1,2,4]triazolo[1,5-c]pyrimidin-2-yl)-6-(trifluoromethyl)benzenesulfonamide, reference compound]",,,,0%,30%
